# Source: patent publication US20210213103A1, “METHODS OF TREATING DRY EYE SYNDROME” (REGENTREE, LLC, priority 2016, published 2021)
# Assays:
# subjects with dry eye = test: Tear film break up time (TFBUT), Example 1 clinical study; format: in vivo, human; details: for Tear Film Break Up Time, change from baseline (mean): visit 2 (baseline) to visit 5, 0.05% and 0.1% groups pooled; for Tear Film Break Up Time, Mean Difference between Tβ4 and Placebo (Tβ4-Placebo): visit 2 to visit 5
# Method: As used herein, the terms “tear breakup time” or “TBUT” or “tear film breakup time” or “TFBUT” can refer to a clinical test that measures the interval between the individual's last complete blink and the breakup of the tear film. The test can be used to assess for DES. To measure TBUT, fluorescein is instilled into the patient's tear film and the patient is asked not to blink while the tear film is observed under a broad beam of cobalt blue illumination. The TBUT is recorded as the number of seconds that elapse between the last blink and the appearance of the first dry spot in the tear film.
# The presently disclosed subject matter also provides for methods of improving tear film stability. Tear film stability can be evaluated by various assessments in the art, including but not limited to a TFBUT analysis. […] In order to achieve maximum fluorescence, an appropriate waiting period is implemented after instillation before evaluating TFBUT. With the aid of a slit-lamp, the integrity of the tear film can be monitored by noting the time it takes to form […] from the time that the eye is opened. TFBUT can be measured in seconds using a stopwatch and a digital image recording system for one eye followed by the second eye. A negative test result is normal, whereby more than about 10 seconds of TFBUT is recorded.
# This study was a multicenter, randomized, double-masked study designed to evaluate the efficacy and safety of 0.05% and 0.1% Tβ4 ophthalmic solution compared to placebo in subjects with dry eye.
# The study consisted of two periods: a 7-day run-in period and a 28-day treatment period.
# The clinical dosage form and packaging of Tβ4 ophthalmic solution and the placebo ophthalmic solutions were identical sterile, low-density polyethylene unit-dose non-preserved bottles. They were packaged in foil-wrap pouches to prevent light exposure, each containing single-use bottles. Throughout the study, between day 1 and day 29, patients were instructed to instill one drop of study medication in each eye four times daily, once in the morning, noon, afternoon and in the evening before bed. Patients were assigned randomization kit numbers in strict numerical sequence, using a code generated by an independent biostatistician. All investigators, study and site personnel, and patients were masked to the treatment assignments.
# Patients were evaluated on day 8 (visit 3), day 15 (visit 4), and day 29 (visit 5) during the dosing period. Exposure to the CAE occurred on days 14 and 28. At each study visit, a panel of dry eye signs and symptoms and safety measures were evaluated (including both before [pre-CAE] and after [post-CAE] exposure).
# [1] = injectable solution, 14 consecutive days, four escalating dose levels; cited from earlier work
# [2] = higher tear film stability group
# [3] = lower tear film stability group
substance,measurement,setting,value
thymosin beta 4 [Tβ4],"Tear Film Break Up Time, change from baseline (mean)",subjects with dry eye; [2],0.14 s
same,"Tear Film Break Up Time, Mean Difference between Tβ4 and Placebo (Tβ4-Placebo)",subjects with dry eye; [2],0.09 s
same,"Tear Film Break Up Time, change from baseline (mean)",subjects with dry eye; [3],0.74 s
same,"Tear Film Break Up Time, Mean Difference between Tβ4 and Placebo (Tβ4-Placebo)",subjects with dry eye; [3],0.20 s
same,safety and tolerability,[1],safe and well-tolerated
